Experimental findings from ChEMBL document CHEMBL1201862, “PubChem BioAssay data set” (2004) are described below.

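Values below derive from 48-hour exposures of cells grown in 96-well plates, with endpoints linearly interpolated between the two concentrations bracketing the appropriate inhibition level. GI50 marks 50% less growth.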 Calls of active or inactive are those of the source. Rule as the data show it: active = GI50 up to about 1.1 µM and inactive = higher.

Among the test systems are SF-295; CAKI-1; M14; SR; COLO 205; MCF7; MDA-MB-435; T47D; MDA-N; NCI/ADR-RES; Hs-578T; MDA-MB-231; DU-145; PC-3; BT-549; IGROV-1; OVCAR-5; NCI-H522; SW-620.
Assay in all cases: growth of human tumour cells (NCI), 48 h

Regarding `CC12CCC(O)CC1CCC1C2CCC2(C)C(C(=O)CC(O)C(F)(F)F)CCC12` (stereo not given), the GI50 in the experiment with SF-295 is 8.73 µM (inactive); with CAKI-1, 21 µM (inactive); with M14, 20.8 µM (inactive); in the experiment on SR it was 0.289 µM (active); in the experiment on COLO 205, 12.2 µM (inactive); in the experiment on MCF7 it was 31.2 µM (inactive). Also, the GI50 in the experiment on MDA-MB-435 was > 75 µM (inactive); in the experiment with T47D, 20.2 µM (inactive); in the experiment with MDA-N it was 61.1 µM (inactive); in the experiment on NCI/ADR-RES it was 24.9 µM (inactive); with Hs-578T, 23.9 µM (inactive); with MDA-MB-231 it was 26.7 µM (inactive). For the same compound, the GI50 was > 87.5 µM (inactive) with DU-145; 30.6 µM (inactive) with PC-3; > 78.3 µM (inactive) with BT-549; > 67.8 µM (inactive) in the experiment with IGROV-1; 26.4 µM (inactive) in the experiment on OVCAR-5; 27.1 µM (inactive) in the experiment with NCI-H522. In addition, in the experiment on SW-620, the GI50 is 40.5 µM (inactive).

Turning to `CCCCCCNC(=O)C1=C(C)NC(C)=C(C(=O)NCCCCCC)C1`, the GI50 is > 100 µM (inactive) with SF-295; > 100 µM (inactive) with CAKI-1; > 100 µM (inactive) in the experiment on M14; 83 µM (inactive) in the experiment with SR; > 100 µM (inactive) with COLO 205; > 100 µM (inactive) in the experiment on MCF7. In addition, the GI50 in the experiment with MDA-MB-435 is 64.7 µM (inactive); in the experiment on T47D, > 100 µM (inactive); with MDA-N, 75.5 µM (inactive); with NCI/ADR-RES, > 100 µM (inactive); in the experiment with Hs-578T, > 100 µM (inactive); in the experiment on MDA-MB-231 it was > 100 µM (inactive). Moreover, the GI50 with DU-145, in the experiment with PC-3, in the experiment on BT-549, with IGROV-1, in the experiment on OVCAR-5 and in the experiment on NCI-H522 was > 100 µM (inactive) throughout. The GI50 with SW-620 was > 100 µM (inactive).

Regarding `O=c1oc2ccccc2cc1-c1cn2cc(Cl)ccc2n1`, the GI50 in the experiment with SF-295 is 0.535 µM (active); in the experiment on CAKI-1, 0.422 µM (active); in the experiment on M14, 0.544 µM (active); in the experiment with SR, 0.0687 µM (active); with COLO 205, 0.865 µM (active); in the experiment on MCF7 it was 0.435 µM (active). Moreover, the GI50 is 0.0434 µM (active) in the experiment with MDA-MB-435; 11 µM (inactive) in the experiment on T47D; 0.0881 µM (active) in the experiment on MDA-N; 0.345 µM (active) with NCI/ADR-RES; 1.23 µM (inactive) with Hs-578T; 3.01 µM (inactive) with MDA-MB-231. Also, the GI50 with DU-145 was 5.57 µM (inactive); in the experiment with PC-3, 1.93 µM (inactive); in the experiment with BT-549, 2.33 µM (inactive); in the experiment with IGROV-1, 0.685 µM (active); in the experiment on OVCAR-5, 10.1 µM (inactive); in the experiment with NCI-H522, 0.104 µM (active). Moreover, the GI50 in the experiment on SW-620 is 0.361 µM (active).

Turning to `O=C1CSC(c2ccc(Cl)cc2Cl)N1c1ccc(Oc2ccc(Cl)cc2)c(Cl)c1` (stereo not given), the GI50 in the experiment with SF-295 is 22 µM (inactive); in the experiment on CAKI-1, 22.4 µM (inactive); in the experiment on M14 it was 23.9 µM (inactive); with SR it was 16.3 µM (inactive); in the experiment on COLO 205, 25.5 µM (inactive); in the experiment with MCF7, 33.2 µM (inactive). The GI50 in the experiment on MDA-MB-435 is 12.6 µM (inactive); with T47D, 23.4 µM (inactive); in the experiment with MDA-N, 21.7 µM (inactive); with NCI/ADR-RES, 21.6 µM (inactive); with Hs-578T it was 14.7 µM (inactive); with MDA-MB-231 it was 19.4 µM (inactive). Further, the GI50 was 32.1 µM (inactive) in the experiment with DU-145; 27.8 µM (inactive) with PC-3; 22.2 µM (inactive) with BT-549; 28.1 µM (inactive) in the experiment on IGROV-1; 33.3 µM (inactive) with OVCAR-5; 10.4 µM (inactive) with NCI-H522. For the same compound, in the experiment with SW-620, the GI50 was 36.5 µM (inactive).

Regarding `O=C1c2sc(-c3ccc(F)cc3)cc2-n2cccc21`, the GI50 is 25.1 µM (inactive) in the experiment on SF-295; 17.1 µM (inactive) in the experiment with CAKI-1; 38.1 µM (inactive) in the experiment with M14; 17.8 µM (inactive) in the experiment with SR; 48 µM (inactive) with COLO 205; 24.5 µM (inactive) with MCF7. Moreover, the GI50 in the experiment on MDA-MB-435 is 31.4 µM (inactive); in the experiment on T47D, 12.8 µM (inactive); with MDA-N, 25.8 µM (inactive); in the experiment with NCI/ADR-RES, 31.2 µM (inactive); in the experiment with Hs-578T, 19.7 µM (inactive); in the experiment with MDA-MB-231 it was 22.2 µM (inactive). For the same compound, the GI50 in the experiment with DU-145 is 24.6 µM (inactive); with PC-3, 37.2 µM (inactive); in the experiment on BT-549, 34 µM (inactive); in the experiment on IGROV-1, 8.39 µM (inactive); in the experiment on OVCAR-5, > 100 µM (inactive); with NCI-H522, 34.8 µM (inactive). For the same compound, the GI50 in the experiment with SW-620 is 47.6 µM (inactive).

`CC(C)(C)c1ccc(-n2c3nc(=O)n(-c4ccccc4CO)c(=O)c-3cc3ccccc32)cc1`: the GI50 in the experiment with SF-295 was 41.1 µM (inactive); in the experiment with CAKI-1, > 100 µM (inactive); with M14 it was 42.8 µM (inactive); in the experiment with SR, 30.5 µM (inactive); with COLO 205 it was 46.5 µM (inactive); with MCF7, 65.6 µM (inactive). Further, the GI50 in the experiment on MDA-MB-435 is 36.1 µM (inactive); in the experiment with T47D, 50 µM (inactive); in the experiment on MDA-N it was 22.2 µM (inactive); with NCI/ADR-RES it was 50 µM (inactive); in the experiment with Hs-578T, 64.3 µM (inactive); with MDA-MB-231, 19.9 µM (inactive). Moreover, the GI50 in the experiment on DU-145 is 42.4 µM (inactive); in the experiment on PC-3, 39.7 µM (inactive); in the experiment with BT-549, 38.4 µM (inactive); with IGROV-1, 71.9 µM (inactive); with OVCAR-5, > 100 µM (inactive); in the experiment with NCI-H522, 32.7 µM (inactive). Further, the GI50 with SW-620 is 39.2 µM (inactive).

As for `Fc1cccc(CSc2ncnc3c2ncn3C2CCCS2)c1` (stereo not given), the GI50 in the experiment on SF-295 is 18.2 µM (inactive); in the experiment with CAKI-1, 37.1 µM (inactive); in the experiment on M14 it was 18.1 µM (inactive); with SR, 3.94 µM (inactive); in the experiment with COLO 205, 10.2 µM (inactive); with MCF7, 22 µM (inactive). In addition, the GI50 in the experiment with MDA-MB-435 was 18.5 µM (inactive); in the experiment on T47D, 29.3 µM (inactive); with MDA-N it was 20.8 µM (inactive); with NCI/ADR-RES, 25 µM (inactive); with Hs-578T, 26.9 µM (inactive); with MDA-MB-231, 23 µM (inactive). Moreover, the GI50 is 17.4 µM (inactive) in the experiment with DU-145; 14.5 µM (inactive) in the experiment on PC-3; 21.7 µM (inactive) in the experiment on BT-549; 22.4 µM (inactive) in the experiment with IGROV-1; 37.3 µM (inactive) in the experiment on OVCAR-5; 15.1 µM (inactive) in the experiment with NCI-H522. The GI50 in the experiment with SW-620 was 29.9 µM (inactive).

`COc1cc2c(cc1O)CC[C@@H]1C2CC[C@@]2(C)C1CC[C@@H]2O` (stereo not given in full): the GI50 with SF-295 was 3.16 µM (inactive); with CAKI-1 it was 13.5 µM (inactive); in the experiment on M14, 0.91 µM (active); in the experiment with SR, 0.073 µM (active); in the experiment with COLO 205, 36.7 µM (inactive); with MCF7, 1.6 µM (inactive). For the same compound, the GI50 in the experiment with MDA-MB-435 was 0.105 µM (active); with T47D it was 4.66 µM (inactive); in the experiment on MDA-N it was 0.103 µM (active); with NCI/ADR-RES it was 0.458 µM (active); with Hs-578T, 1.14 µM (inactive); with MDA-MB-231, 3.4 µM (inactive). For the same compound, the GI50 is 2.46 µM (inactive) with DU-145; 6.24 µM (inactive) in the experiment with PC-3; 0.472 µM (active) in the experiment on BT-549; 5.51 µM (inactive) with IGROV-1; 37 µM (inactive) with OVCAR-5; 0.482 µM (active) in the experiment with NCI-H522. Also, the GI50 in the experiment on SW-620 was 0.635 µM (active).

As to `CN(C)C(=S)SCC(N)=O`, the GI50 in the experiment on SF-295, in the experiment with CAKI-1, in the experiment on M14, with SR, with COLO 205 and with MCF7 was > 100 µM (inactive) each time. Further, the GI50 with MDA-MB-435, in the experiment on T47D, in the experiment with MDA-N, in the experiment on NCI/ADR-RES, in the experiment on Hs-578T and with MDA-MB-231 was > 100 µM (inactive) throughout. Moreover, the GI50 in the experiment with DU-145, in the experiment on PC-3, with BT-549, with IGROV-1, in the experiment with OVCAR-5 and in the experiment with NCI-H522 was > 100 µM (inactive) throughout. Besides, the GI50 with SW-620 is > 100 µM (inactive).

For `Cc1ccc([N+](=O)[O-])cc1S(=O)(=O)Nc1ccc(C2=NN(c3ccc([N+](=O)[O-])cc3[N+](=O)[O-])C(c3ccccc3)C2)cc1` (stereo not given), the GI50 in the experiment with SF-295 was 14.3 µM (inactive); with CAKI-1, 22.8 µM (inactive); in the experiment with M14, 17.4 µM (inactive); with SR, 22.4 µM (inactive); in the experiment on COLO 205, 19.2 µM (inactive); in the experiment on MCF7, 12.2 µM (inactive). The GI50 in the experiment with MDA-MB-435 was 19.3 µM (inactive); in the experiment on T47D, 12.1 µM (inactive); with MDA-N it was 16 µM (inactive); in the experiment on NCI/ADR-RES it was 18.4 µM (inactive); in the experiment with Hs-578T it was 21.9 µM (inactive); in the experiment with MDA-MB-231, 14.9 µM (inactive). For the same compound, the GI50 with DU-145 was 17.9 µM (inactive); in the experiment with PC-3 it was 14.3 µM (inactive); with BT-549, 17.2 µM (inactive); in the experiment on IGROV-1, 16.6 µM (inactive); in the experiment on OVCAR-5 it was 23.7 µM (inactive); in the experiment with NCI-H522 it was 10.1 µM (inactive). Further, the GI50 in the experiment with SW-620 is 32.5 µM (inactive).
